Tested on: pilocarpine-induced seizures
Assay: Pilocarpine model of acute seizures
Type: in vivo, Sprague Dawley rats
Procedure: All animal experiments were carried out in accordance with the National Institutes of Health guide for the care and use of laboratory animals (NIH publication 8023, revised 1996) and with the approval of the local Animal Use Committee. Unless indicated, all chemicals were obtained from Sigma Chemical Co (St. Louis Mo.). Male, Sprague Dawley rats weighing 50-74 g (young) or 147-309 g (adult) were used in this study. Acute seizures were induced by kainic acid (KA; Ocean Produce Int., Canada), pilocarpine or pentylenetetrazole (PTZ) as previously described (Lian et al 2006). These models were chosen because they initiate seizures by different mechanisms and the seizures have a relatively gradual onset compared to seizures initiated by stimulation. There was no difference in the body weight of the animals receiving the different convulsants. For pilocarpine, kainic acid and PTZ, the mean weights were 219±5 g (range 163-275 g), 215±7 g (range 183-258 g), and 216±13 g (range 147-309 g), respectively. The animals in the drug treatment groups were not different in weight from the animals in the control groups.
After administration of KA (10 mg/kg, ip), pilocarpine (scopolamine methyl bromide 1 mg/kg, s.c followed 15 min later by 300 mg/kg, ip pilocarpine) or PTZ (50 mg/kg, ip) (Lian et al., 2006), animals were continuously monitored for seizure activity for at least 5 h after KA or pilocarpine and for 30 min after PTZ. Behavioral seizures were scored by an investigator blinded to the treatment. Latency to the first wet dog shake after KA, latency to the first forelimb clonus (after pilocarpine, kainic acid or PTZ) and the score and duration of seizures were measured. When at least 1 hour had passed without any head bobbing (for pilocarpine) or any wet dog shakes (for KA), seizures were considered over. Status epilepticus lasting longer than 4 hours (for KA) or 5 hours (for pilocarpine) were assigned 4 and 5 hours for seizure duration. For animals receiving PTZ, the seizure duration was defined as the period of tonic-clonic seizures. EEG recording in the hippocampus was conducted as previously described (Lian et al., 2004). After anesthesia, a recording electrode was placed in a burr hole centered at 3.0 mm posterior to bregma, 1.8 mm lateral to the midline and then lowered 3.0 mm. A ground screw and wire was placed over the frontal region in another burr hole. This assembly was fixed to the skull with dental cement.
Each animal was assigned the score of the most severe seizure observed. The behavioral seizures induced by KA or pilocarpine were scored according to an adjusted version of the scale of Racine (Bough et al., 2002): stage 1, wet dog shakes after KA or trembling after pilocarpine; stage 2, head bobbing and stereotypes; stage 3, unilateral forelimb clonus; stage 4, bilateral forelimb clonus; stage 5, rearing and falling; stage 6, jumping and/or running followed by falling. Death within 24 h was assigned stage 7.
Adult rats received either D-F1,6BP, sodium valproate (VPA, 0.3 g/kg), 2-DG (0.25, 0.5 g/kg) or normal saline (vehicle) intraperitoneally followed 1 h later by one of the convulsants. The dose for VPA was based on experimental evidence that doses from 0.1 to 0.4 g/kg (ip) are effective in animal models (Bough and Eagles, 2001; Manent et al., 2007). Three doses of F1,6BP (0.25, 0.5 and 1 g/kg) were tested with this dosing schedule. Two additional groups were administered F1,6BP (0.5 or 1 g/kg, n=5) after pilocarpine. In this experiment, the F1,6BP was given intraperitoneally at the first behavioral seizure, which was chewing movements of the jaw. Two additional sets of animals were fed the classic ketogenic diet (No. F3666; Bio-Serv, Frenchtown, N.J.). One set of animals was given the diet beginning on postnatal day 22-26 (KD-Yng) and maintained on this diet for 4 weeks. Thus the seizures were tested in this group when the animals had reached approximately the same age (50-54 days) as the majority of the animals tested. […]

[1] = 1 g/kg given at first sign of seizure activity after pilocarpine

## O=C(COP(=O)(O)O)[C@@H](O)[C@H](O)[C@H](O)COP(=O)(O)O [F1,6BP, Fructose-1,6-bisphosphate]
[1]
  latency to forelimb clonus: increase
  seizure duration: decrease
1 g/kg given at first sign of seizure activity after pilocarpine, n=5
  progression of the seizures: significantly slowed
4 rats pretreated with 1 g/kg
  behavioral or electrographic seizures (hippocampal EEG): no behavioral or electrographic seizures
F1,6BP 0.25 g/kg ip 1 h before pilocarpine, n=5
  effect on the seizure parameters: no effect
F1,6BP 0.5 g/kg ip 1 h before pilocarpine
  animals with a seizure score ≧3: 3 out of 10
F1,6BP 1 g/kg ip 1 h before pilocarpine
  animals with a seizure score ≧3: 2 out of 10
Pretreated with 0.5 or 1 g/kg
  seizure duration: significantly decreased
  seizure score: significantly decreased
The 5 animals with score ≧3 after 0.5 or 1 g/kg pretreatment
  latency to the seizures: significantly increased

Reference: patent US20100197610A1, “FRUCTOSE 1, 6 BISPHOSPHATE - A NOVEL ANTICONVULSANT DRUG” (Baylor College of Medicine, priority 2007, published 2010)
